Source: ChEMBL document CHEMBL1201862, “PubChem BioAssay data set” (2004)
The source made the active and inactive calls.

Experiments:
[1] = target: T1, RNA-binding protein pos-1 (Caenorhabditis elegans, UniProt G5EF15); assay: disruptors of C. elegans POS-1 RNA interaction – biochemical, fluorescence polarization, dose response (AID 1964);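 also: purified POS-1 fused to maltose binding protein made in E. coli; potency of compounds blocking POS-1 binding to fluorescent RNA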
T1 sequence (G5EF15 whole entry): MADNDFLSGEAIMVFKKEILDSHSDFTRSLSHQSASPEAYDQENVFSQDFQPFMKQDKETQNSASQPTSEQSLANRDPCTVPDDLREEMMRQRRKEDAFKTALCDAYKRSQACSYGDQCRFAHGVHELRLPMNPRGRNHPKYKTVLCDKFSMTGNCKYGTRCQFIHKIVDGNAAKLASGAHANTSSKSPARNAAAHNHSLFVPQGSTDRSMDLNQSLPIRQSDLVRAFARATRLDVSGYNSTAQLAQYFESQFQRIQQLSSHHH

[2] = target: T2, Zinc finger protein mex-5 (Caenorhabditis elegans, UniProt Q9XUB2); assay: potency of MEX-5 RNA-binding blockers – biochemical, C. elegans, fluorescence polarization, dose response (AID 1960)
T2 sequence (Q9XUB2 whole entry): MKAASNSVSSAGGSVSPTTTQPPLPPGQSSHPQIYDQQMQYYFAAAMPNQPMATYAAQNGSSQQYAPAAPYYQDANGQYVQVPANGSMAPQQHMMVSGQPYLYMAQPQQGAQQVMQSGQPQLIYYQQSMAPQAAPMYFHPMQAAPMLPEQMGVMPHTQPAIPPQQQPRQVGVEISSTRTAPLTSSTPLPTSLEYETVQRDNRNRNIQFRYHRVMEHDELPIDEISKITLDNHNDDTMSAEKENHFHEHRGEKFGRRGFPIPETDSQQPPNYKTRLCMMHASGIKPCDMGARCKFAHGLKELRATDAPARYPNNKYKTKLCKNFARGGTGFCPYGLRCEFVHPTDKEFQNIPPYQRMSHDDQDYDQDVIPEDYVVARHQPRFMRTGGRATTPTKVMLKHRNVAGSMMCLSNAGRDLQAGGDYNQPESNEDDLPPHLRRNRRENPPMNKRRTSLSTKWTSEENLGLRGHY

[3] = target: Cytochrome P450 2C9 (Homo sapiens, UniProt P11712)
[4] = target: T3, Heat shock factor protein 1 (Mus musculus, UniProt P38532); assay: enhancement of HSF1-driven luciferase signal – cell-based, NIH3T3, luminescence, dose retest, confirmation (AID 435004); type: functional;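 also: stress induced by proteasome inhibitor MG132 added 30 min after compound; luciferase reporter driven by HSF1 response element in NIH3T3 cells; actives raise luminescence as potentiators of the MG132 stress response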
T3 sequence (P38532 whole entry): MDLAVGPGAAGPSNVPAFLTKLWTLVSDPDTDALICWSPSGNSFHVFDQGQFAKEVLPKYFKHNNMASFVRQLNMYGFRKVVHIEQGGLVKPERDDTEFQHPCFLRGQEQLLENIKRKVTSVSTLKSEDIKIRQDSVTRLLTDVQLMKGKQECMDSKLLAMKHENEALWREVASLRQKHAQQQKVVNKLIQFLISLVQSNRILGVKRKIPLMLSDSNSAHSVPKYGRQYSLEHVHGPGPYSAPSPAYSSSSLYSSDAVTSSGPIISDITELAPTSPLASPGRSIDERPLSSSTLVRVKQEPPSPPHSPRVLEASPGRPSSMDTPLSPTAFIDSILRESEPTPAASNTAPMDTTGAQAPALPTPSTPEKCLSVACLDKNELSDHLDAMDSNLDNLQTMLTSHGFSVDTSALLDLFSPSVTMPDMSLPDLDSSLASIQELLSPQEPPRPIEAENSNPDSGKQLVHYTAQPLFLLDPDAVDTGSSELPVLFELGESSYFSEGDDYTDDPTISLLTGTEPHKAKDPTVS

[5] = target: Cytochrome P450 3A4 (Homo sapiens, UniProt P08684);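 also: CYP3A4 tested as one member of a cytochrome P450 panel screen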
[6] = target: T4, Cytochrome P450 1A2 (Homo sapiens, UniProt P05177);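 also: PubChem cytochrome P450 panel assay, CYP1A2 panel member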
T4 sequence (P05177 whole entry): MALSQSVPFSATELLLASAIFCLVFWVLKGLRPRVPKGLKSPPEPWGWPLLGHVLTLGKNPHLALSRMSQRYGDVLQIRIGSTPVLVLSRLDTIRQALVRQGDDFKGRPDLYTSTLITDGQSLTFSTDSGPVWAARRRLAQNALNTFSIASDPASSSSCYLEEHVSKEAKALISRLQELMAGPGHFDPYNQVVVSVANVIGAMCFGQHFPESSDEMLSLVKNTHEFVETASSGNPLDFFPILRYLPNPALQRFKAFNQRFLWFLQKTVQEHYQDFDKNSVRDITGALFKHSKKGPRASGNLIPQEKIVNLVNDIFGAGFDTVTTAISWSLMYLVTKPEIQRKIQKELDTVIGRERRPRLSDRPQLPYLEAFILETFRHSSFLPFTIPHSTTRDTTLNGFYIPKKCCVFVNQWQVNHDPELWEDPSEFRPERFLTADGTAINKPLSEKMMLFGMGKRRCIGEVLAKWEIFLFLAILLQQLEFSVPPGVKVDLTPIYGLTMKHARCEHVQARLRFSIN

[7] = system: Streptococcus sp. 'group A'; assay: Streptococcus pyogenes SK(-)GAS viability under kanamycin – luminescence, BacTiterGlo, confirmation, counter-screen for streptokinase expression inhibitor project, dose response (AID 1900); type: functional, organism-based
[8] = target: T5, Streptokinase A (Streptococcus pyogenes serotype M1, UniProt P10520); assay: viability-normalized secreted streptokinase activity reduction – plasminogen activation absorbance, OD405, dose response (AID 1914); type: functional, Streptococcus pyogenes M1 GAS;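 also: secreted streptokinase activity via plasminogen activation per viability signal from cell pellet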
T5 sequence (P10520 whole entry): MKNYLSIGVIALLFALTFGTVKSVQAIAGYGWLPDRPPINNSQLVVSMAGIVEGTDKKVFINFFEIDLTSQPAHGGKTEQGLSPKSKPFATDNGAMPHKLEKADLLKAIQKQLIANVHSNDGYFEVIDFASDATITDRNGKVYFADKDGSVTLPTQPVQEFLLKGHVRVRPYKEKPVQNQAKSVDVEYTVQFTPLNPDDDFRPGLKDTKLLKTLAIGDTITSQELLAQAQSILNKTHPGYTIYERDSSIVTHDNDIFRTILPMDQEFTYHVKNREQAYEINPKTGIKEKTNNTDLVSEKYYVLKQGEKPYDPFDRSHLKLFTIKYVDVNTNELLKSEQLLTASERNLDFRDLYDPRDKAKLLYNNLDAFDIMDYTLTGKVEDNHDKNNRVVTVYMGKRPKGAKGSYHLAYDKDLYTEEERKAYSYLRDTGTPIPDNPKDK

[9] = system: Streptococcus; assay: GAS UMAA2166 growth inhibition – luminescence, BacTiterGlo, counter-screen for streptokinase expression inhibitor project, dose response (AID 1915); type: functional, organism-based;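 also: potency for reduction of bacterial viability or growth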
[10] = target: Cytochrome P450 2C19 (Homo sapiens, UniProt P33261); assay: Cytochrome panel assay with activity outcomes. Panel member name: p450-cyp2c19 Compounds with AC50 equal or less than 10 uM are considered active; type: functional; settings: read-out: AC50
Chain of Cytochrome P450 2C19 (P33261 whole entry): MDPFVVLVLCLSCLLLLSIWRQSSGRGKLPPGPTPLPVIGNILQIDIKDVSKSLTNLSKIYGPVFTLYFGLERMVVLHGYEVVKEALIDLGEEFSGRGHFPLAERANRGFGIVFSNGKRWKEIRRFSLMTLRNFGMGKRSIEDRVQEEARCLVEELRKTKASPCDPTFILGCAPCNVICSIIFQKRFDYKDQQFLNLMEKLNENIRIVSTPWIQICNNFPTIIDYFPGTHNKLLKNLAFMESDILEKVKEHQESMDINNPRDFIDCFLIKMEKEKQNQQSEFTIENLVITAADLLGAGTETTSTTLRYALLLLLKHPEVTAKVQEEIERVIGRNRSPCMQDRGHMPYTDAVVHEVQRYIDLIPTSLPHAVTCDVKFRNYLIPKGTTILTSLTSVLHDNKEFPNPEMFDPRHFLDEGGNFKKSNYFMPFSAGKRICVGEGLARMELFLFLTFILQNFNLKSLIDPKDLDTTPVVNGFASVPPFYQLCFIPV

Chain of Cytochrome P450 3A4 (P08684 whole entry): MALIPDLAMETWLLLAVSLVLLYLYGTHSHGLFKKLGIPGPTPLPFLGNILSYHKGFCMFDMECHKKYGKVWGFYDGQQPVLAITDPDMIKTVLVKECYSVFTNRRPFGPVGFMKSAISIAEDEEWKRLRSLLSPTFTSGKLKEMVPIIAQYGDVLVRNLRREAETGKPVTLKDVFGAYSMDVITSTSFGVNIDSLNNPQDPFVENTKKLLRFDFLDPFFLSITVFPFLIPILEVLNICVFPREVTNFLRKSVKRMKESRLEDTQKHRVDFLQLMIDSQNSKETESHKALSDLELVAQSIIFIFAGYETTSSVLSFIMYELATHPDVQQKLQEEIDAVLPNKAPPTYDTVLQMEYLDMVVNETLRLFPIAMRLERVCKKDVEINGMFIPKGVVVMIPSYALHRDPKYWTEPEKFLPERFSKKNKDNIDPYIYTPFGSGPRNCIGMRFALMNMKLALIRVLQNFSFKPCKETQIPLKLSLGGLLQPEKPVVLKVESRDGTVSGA
Chain of Cytochrome P450 2C9 (P11712 whole entry): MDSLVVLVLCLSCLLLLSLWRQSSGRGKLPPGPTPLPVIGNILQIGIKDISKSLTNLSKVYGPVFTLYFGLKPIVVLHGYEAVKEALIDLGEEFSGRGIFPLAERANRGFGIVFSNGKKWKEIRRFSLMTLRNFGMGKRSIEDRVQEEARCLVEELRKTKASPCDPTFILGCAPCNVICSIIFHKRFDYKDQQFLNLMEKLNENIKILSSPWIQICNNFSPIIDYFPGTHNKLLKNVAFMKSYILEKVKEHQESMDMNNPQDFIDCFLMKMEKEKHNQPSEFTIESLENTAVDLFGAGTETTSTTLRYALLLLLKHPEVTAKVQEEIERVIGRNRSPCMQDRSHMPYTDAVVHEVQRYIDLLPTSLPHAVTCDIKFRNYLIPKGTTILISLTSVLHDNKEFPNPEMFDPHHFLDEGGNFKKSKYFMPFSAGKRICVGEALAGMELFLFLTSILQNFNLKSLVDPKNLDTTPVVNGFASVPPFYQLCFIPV

C=CCN1C(=O)NC(=O)/C(=C/C=C/Nc2ccccc2)C1=O
EC50 [1]: > 300 µM (not active)
EC50 [2]: > 300 µM (inconclusive)

COc1ccc(N2CCN(Cc3nc4c(c(=O)n(C)c(=O)n4C)n3CC(C)=O)CC2)cc1
AC50 [3]: 28.2 µM (inconclusive)

COc1ccc(C2Nc3ccccc3C(=O)N2Cc2ccco2)cc1COc1ccc(F)cc1 (centres undefined)
EC50 [4]: > 260 µM (inactive)

CC(=C\c1ccco1)/C=C1/SC(=S)N(CC(=O)O)C1=O
EC50 [1]: > 300 µM (not active)
EC50 [2]: > 300 µM (not active)

N#CCc1c(C#N)c(N)nc(N2CCN(S(=O)(=O)c3ccccc3F)CC2)c1C#N
EC50 [4]: > 260 µM (inactive)

O=C(c1cc(C(F)(F)F)cc(C(F)(F)F)c1)N1CCC2(CC1)CN(Cc1ccncc1)C2
AC50 [5]: 15.8 µM (inconclusive)
AC50 [6]: 20 µM (inconclusive)

O=C(O)c1cc2cc(Cc3cccnc3)ccc2o1
AC50 [5]: 25.1 µM (inconclusive)

COC(=O)c1cc2c(ccn2-c2ccc(F)cc2)n1Cc1ccc(C#N)cc1
EC50 [4]: > 260 µM (inactive)

CC(C)N1CCc2c(sc(NC(=O)c3ccc(S(=O)(=O)N(C)CC4CCCO4)cc3)c2C(N)=O)C1 (centres undefined)
EC50 [7]: > 150 µM (not active)
EC50 [8]: > 150 µM (not active)
EC50 [1]: 203 µM (active)
EC50 [9]: > 150 µM (not active)
EC50 [2]: > 300 µM (not active)

NC(=O)CI [IODOACETAMIDE]
AC50 [3]: 39.8 µM (inconclusive)
AC50 [10]: 39.8 µM (inconclusive)
AC50 [6]: 31.6 µM (inconclusive)

COCCn1c(=O)c(-c2cc(F)cc(F)c2)nc2cnc(OC)nc21
AC50 [3]: 39.8 µM (inconclusive)
AC50 [10]: 39.8 µM (inconclusive)

Cc1nn(C)cc1C(=O)NN=C(S)Nc1ccccc1
AC50 [3]: 39.8 µM (inconclusive)
AC50 [10]: 22.4 µM (inconclusive)
AC50 [6]: 15.8 µM (inconclusive)

O=C(O)CN1C(=O)/C(=C/c2ccccc2Br)Oc2ccccc21
EC50 [4]: > 260 µM (inactive)

Cc1c(Nc2cc(N3CCCC(C)C3)c3nonc3c2[N+](=O)[O-])c(=O)n(-c2ccccc2)n1C (centres undefined)
AC50 [3]: 2.51 µM (inconclusive)

COc1ccc(CCN2C(=O)NC(=O)/C(=C\Nc3ccc(NC(C)=O)cc3)C2=O)cc1OC
EC50 [1]: > 300 µM (not active)
EC50 [2]: > 300 µM (not active)

C[C@H]1O[C@@H](CC(=O)O)Cc2c(O)c3c(c(O)c21)C(=O)C=C(C1=CC(=O)c2c(O)c4c(c(O)c2C1=O)C[C@H](CC(=O)O)O[C@@H]4C)C3=O
AC50 [3]: 7.94 µM (inconclusive)

c1ccc(Nc2c(-c3ccco3)nc3ccccn23)cc1
EC50 [4]: 151 µM (active)

CCN(CC)CCN1C(=O)C(O)=C(C(=O)c2cc3cccc(OC)c3o2)C1c1ccc(F)cc1 (centres undefined)
EC50 [1]: > 300 µM (not active)
EC50 [2]: > 300 µM (not active)

C[C@H]1COC(=O)[C@H](Cc2ccccc2)NC(=O)[C@@H](C)COC(=O)[C@H](Cc2ccccc2)NC1=O
AC50 [5]: 3.98 µM (inconclusive)

Cn1cc(-c2nc3cnc(N4CCNCC4)nc3n(-c3ccccc3)c2=O)c2ccccc21
AC50 [5]: 20 µM (inconclusive)
